In ChEMBL document CHEMBL4651402, “Screening of ~5500 FDA-approved drugs and clinical candidates for anti-SARS-CoV-2 activity” (2021):
Counter-ions that a name gives are not always drawn. Square brackets hold non-standard residues; d marks the D form. Peptide text beside a SMILES is read from it. pGlu = O=C1CC[C@@H](C(=O)O)N1; Thz = O=C(O)[C@@H]1CSCN1

System: SARS-CoV-2
Test: microbe, parasite or virus in culture
Conditions: Severe acute respiratory syndrome coronavirus 2, Vero C1008, 48 h

Structure (SMILES) | IC50 | IC50 (read-out: pIC50 (converted))
C1CCC(C(CC2CCCCN2)C2CCCCC2)CC1 (configuration not stated) [PERHEXILINE MALEATE] | > 20 µM | > 20 µM
O=C1[C@H]2CCCC[C@H]2C(=O)N1CCCCN1CCN(c2nsc3ccccc23)CC1 [PEROSPIRONE] | > 20 µM | > 20 µM
OCCN1CCN(CCCN2c3ccccc3Sc3ccc(Cl)cc32)CC1 [PERPHENAZINE] | > 20 µM | > 20 µM
OCC(O)C(O)C(O)C(O)C(O)CO (configuration not stated) [PERSEITOL] | > 20 µM | > 20 µM
CO[C@H]1[C@H](O)[C@H](O[C@H]2CC[C@@]3(C=O)[C@H](CC[C@@H]4[C@@H]3CC[C@]3(C)[C@@H](C5=CC(=O)OC5)CC[C@]43O)C2)O[C@@H](C)[C@@H]1O [PERUVOSIDE] | > 20 µM | > 20 µM
NS(=O)(=O)OC[C@@H]1C[C@@H](n2ccc3c(N[C@H]4CCc5ccccc54)ncnc32)C[C@@H]1O [PEVONEDISTAT] | > 20 µM | > 20 µM
FC(F)(F)c1ccc(CNc2ccc(Cc3c[nH]c4ncc(Cl)cc34)cn2)cn1 [PEXIDARTINIB] | > 20 µM | > 20 µM
CCCOCCn1c(=O)c(N2CCN(CCO)CC2)nc2cnc(-c3ccc(OC)nc3)cc21 [PF-03049423] | > 20 µM | > 20 µM
COc1ccc(-c2cc3c(C)nc(N)nc3n([C@H]3CC[C@H](OCCO)CC3)c2=O)cn1 [PF-04691502] | > 20 µM | > 20 µM
Nc1[nH]ncc1-c1cc(Cl)ccc1Oc1cc(F)c(S(=O)(=O)Nc2cscn2)cc1Cl [PF-05089771] | > 20 µM | > 20 µM
C=CC(=O)N1C[C@H](COc2nc(Nc3cnn(C)c3)nc3[nH]cc(Cl)c23)[C@@H](OC)C1 [PF-06459988] | > 20 µM | > 20 µM
CCOc1cccnc1Oc1cncc(-c2ncc(C(=O)N[C@H]3CCOC3)cn2)c1 [PF-06865571] | > 20 µM | > 20 µM
CNC(=O)c1ccc(C)c(-n2c(C)cc(OCc3ccc(F)cc3F)c(Br)c2=O)c1 [PH-797804] | > 20 µM | > 20 µM
O=C1C(=O)c2ncccc2-c2cccnc21 [PHANQUONE] | > 20 µM | > 20 µM
CCOc1ccc(/N=C(\C)Nc2ccc(OCC)cc2)cc1 [PHENACAINE] | > 20 µM | > 20 µM
NC(=O)NC(=O)Cc1ccccc1 [PHENACEMIDE] | > 20 µM | > 20 µM
CCOc1ccc(NC(C)=O)cc1 [PHENACETIN] | > 20 µM | > 20 µM
CCC(=O)C(CC(C)N1CCOCC1)(c1ccccc1)c1ccccc1 (configuration not stated) [PHENADOXONE] | > 20 µM | > 20 µM
CC1C2Cc3ccc(O)cc3C1(C)CCN2CCc1ccccc1 (configuration not stated) [PHENAZOCINE] | > 20 µM | > 20 µM
Nc1ccc(/N=N/c2ccccc2)c(N)n1 [PHENAZOPYRIDINE] | > 20 µM | > 20 µM
CCN(CC)CCSC(=O)N(c1ccccc1)c1ccccc1 [PHENCARBAMIDE] | > 20 µM | > 20 µM
c1ccc(C2(N3CCCCC3)CCCCC2)cc1 [PHENCYCLIDINE] | > 20 µM | > 20 µM

Structure (SMILES) | IC50 | IC50 (read-out: pIC50 (converted))
NNCCc1ccccc1 [PHENELZINE] | > 20 µM | > 20 µM
CC(Oc1ccccc1)C(=O)N[C@@H]1C(=O)N2[C@@H]1SC(C)(C)[C@@H]2C(=O)O (some centres not stated) [PHENETHICILLIN] | > 20 µM | > 20 µM
CCC(C(=O)NC(N)=O)c1ccccc1 (configuration not stated) [PHENETURIDE] | > 20 µM | > 20 µM
N=C(N)NC(=N)NCCc1ccccc1 [PHENFORMIN] | > 20 µM | > 20 µM
NCC(CC(=O)O)c1ccccc1 (configuration not stated) [PHENIBUT] | > 20 µM | > 20 µM
NC(=O)NNc1ccccc1 [PHENICARBAZIDE] | > 20 µM | > 20 µM
CN1CCC2=C(C1)C(c1ccccc1)c1ccccc12 (configuration not stated) [PHENINDAMINE] | > 20 µM | > 20 µM
O=C1c2ccccc2C(=O)C1c1ccccc1 [PHENINDIONE] | > 20 µM | > 20 µM
CC(Cc1ccccc1)NN (configuration not stated) [PHENIPRAZINE] | > 20 µM | > 20 µM
CN(C)CCC(c1ccccc1)c1ccccn1 (configuration not stated) [PHENIRAMINE] | > 20 µM | > 20 µM
CC1NCCOC1c1ccccc1 (configuration not stated) [PHENMETRAZINE] | > 20 µM | > 20 µM
CCC1(c2ccccc2)C(=O)NC(=O)NC1=O [PHENOBARBITAL] | > 20 µM | > 20 µM
O=C1OC(c2ccc(O)cc2)(c2ccc(O)cc2)c2ccccc21 [PHENOLPHTHALEIN] | > 20 µM | > 20 µM
Oc1ccccc1 [PHENOL] | > 20 µM | > 20 µM
CCOC(=O)C1(c2ccccc2)CCN(CCC(O)c2ccccc2)CC1 (configuration not stated) [PHENOPERIDINE] | > 20 µM | > 20 µM
c1ccc2c(c1)Nc1ccccc1S2 [PHENOTHIAZINE] | > 20 µM | > 20 µM
NC(=O)OCCCc1ccccc1 [PHENPROBAMATE] | > 20 µM | > 20 µM
CCC(c1ccccc1)c1c(O)c2ccccc2oc1=O (configuration not stated) [PHENPROCOUMON] | > 20 µM | > 20 µM
CN1C(=O)CC(c2ccccc2)C1=O (configuration not stated) [PHENSUXIMIDE] | > 20 µM | > 20 µM
CC(C)(N)Cc1ccccc1 [PHENTERMINE] | > 20 µM | > 20 µM
Cc1ccc(N(CC2=NCCN2)c2cccc(O)c2)cc1 [PHENTOLAMINE] | > 20 µM | > 20 µM
N=C(N)NC(=N)Nc1ccccc1 [PHENYL BIGUANIDE] | > 20 µM | > 20 µM

Structure (SMILES) | IC50 | IC50 (read-out: pIC50 (converted))
O=C(O)Cc1ccccc1 [PHENYLACETIC ACID] | > 20 µM | > 20 µM
N[C@@H](Cc1ccccc1)C(=O)O [PHENYLALANINE] | > 20 µM | > 20 µM
O=C(O)CCCc1ccccc1 [PHENYLBUTANOIC ACID] | > 20 µM | > 20 µM
CCCCC1C(=O)N(c2ccccc2)N(c2ccccc2)C1=O [PHENYLBUTAZONE] | > 20 µM | > 20 µM
CNC[C@H](O)c1cccc(O)c1 [PHENYLEPHRINE] | > 20 µM | > 20 µM
OCCc1ccccc1 [PHENYLETHYL ALCOHOL] | > 20 µM | > 20 µM
CN(C)CCOc1ccccc1Cc1ccccc1 [PHENYLTOLOXAMINE] | > 20 µM | > 20 µM
OC(CNc1ccccn1)c1ccccc1 (configuration not stated) [PHENYRAMIDOL] | > 20 µM | > 20 µM
O=C1NC(=O)C(c2ccccc2)(c2ccccc2)N1 [PHENYTOIN] | > 20 µM | > 20 µM
CCCCCCCCCCCCCC(=O)O[C@@H]1[C@@H](C)[C@@]2(O)[C@@H](C=C(CO)C[C@]3(O)C(=O)C(C)=C[C@@H]23)[C@@H]2C(C)(C)[C@]12OC(C)=O [PHORBOL MYRISTATE ACETATE] | > 20 µM | > 20 µM
O=C(O)c1ccccc1C(=O)Nc1ccc(S(=O)(=O)Nc2nccs2)cc1 [PHTHALYLSULFATHIAZOLE] | > 20 µM | > 20 µM
CNC(=O)Oc1ccc2c(c1)[C@]1(C)CCN(C)[C@@H]1N2C [PHYSOSTIGMINE] | > 20 µM | > 20 µM
CCCCCCCCCCCCCC[C@@H](O)[C@@H](O)[C@@H](N)CO [PHYTOSPHINGOSINE] | > 20 µM | > 20 µM
CCCCN1CCC(CNC(=O)c2c3n(c4ccccc24)CCCO3)CC1 [PIBOSEROD] | > 20 µM | > 20 µM
OC[C@H]1O[C@@H](Oc2cc(O)cc(/C=C/c3ccc(O)cc3)c2)[C@H](O)[C@@H](O)[C@@H]1O [PICEID] | > 20 µM | > 20 µM
OCc1ccccn1 [PICONOL] | > 20 µM | > 20 µM
COc1ccc(C(=O)NCc2cccnc2)cc1C(=O)NCc1cccnc1 [PICOTAMIDE] | > 20 µM | > 20 µM
CS(=O)(=O)N1CCN(Cc2cc3nc(-c4cccc5[nH]ncc45)nc(N4CCOCC4)c3s2)CC1 [PICTILISIB] | > 20 µM | > 20 µM
O=C1CC[C@@H](C(=O)O)N1 [PIDOLIC ACID] | > 20 µM | > 20 µM
O=C1CC[C@@H](C(=O)N2CSC[C@H]2C(=O)O)N1 [PIDOTIMOD] ([pGlu]-[Thz]-OH) | > 20 µM | > 20 µM
CC(C)=CCC/C(C)=C/CC/C(C)=C/CN1CCN(Cc2ccc3c(c2)OCO3)CC1 [PIFARNINE] | > 20 µM | > 20 µM
CC[C@@H]1C(=O)OC[C@@H]1Cc1cncn1C [PILOCARPINE] | > 20 µM | > 20 µM
